Data set [1] can be described thus: Mouse body weight in the skin abscess infection model. Format: in vivo. On the procedure:
The anti-infective activity of the peptides VmCT1, temporin A, VT, and TV against A. baumannii ATCC 19606 was evaluated as described by Torres et al.[7],[83] Bacteria were grown in tryptic soy broth medium to an optical density of 0.5 at 600 nm. Cells were washed twice with sterile phosphate-buffered saline (pH 7.4, 13,000 rpm for 1 min) and resuspended to a final concentration of 1 × 10^7 CFU/20 μL. To generate the skin infection, female CD-1 mice (6-weeks-old) were first anesthetized with isoflurane and their backs were shaved. Using a needle, a superficial linear abrasion was made on the shaved area of the mice to injure just the stratum corneum and the upper layer of the epidermis. An aliquot of 20 μL containing 1 × 10^7 CFU of A. baumannii was then inoculated over the wound area with a pipette tip. The next day, the infected area was treated with the peptides (i.e., VmCT1, temporin A, VT, and TV), which were administered onto the abscess at their MIC. The animals were euthanized, and the scarified skin area removed 2- and 4-days post-infection. The excised area was homogenized using a bead beater for 20 min (25 Hz) and serially diluted for CFU quantification. Eight mice were used per group (n = 8). All experiments were performed in accordance with protocol 806763 approved by the IACUC at the University of Pennsylvania.

A short description of data set [2]: Skin tissue histopathological analysis (H&E). It is filed as in vivo, mouse. To be noted: H&E staining, tissue collected 24 h after infection and treatment, three mice per condition. On the procedure: The fur on the back of the mice was removed and the mice were infected and treated as described in the Skin abscess infection mouse model section. After 24 h, mice were euthanized for tissue collection. Samples were pre-fixed in individual cassettes, then transferred to a container filled with 70% ethanol (EtOH) for slicing and staining. Next, the samples were placed on glass slides for microscopy analysis. We collected the tissue from three mice per condition analyzed.

The nature of data set [3]: Resistance to proteolytic degradation in fetal bovine serum. It is filed as in vitro ADME. The settings on record: 25% fetal bovine serum in water, 37 °C. On the procedure: Stability assays were performed following the protocol described by Torres et al.[67]. Briefly, a peptide solution was added to GIBCO fetal bovine serum diluted to 25% in water and kept at 37 °C. The degradation kinetics were monitored by liquid chromatography and the percentage of peptide remaining in each case was calculated by integrating the peptide peak area. These experiments were performed as three independent replicates, and aliquots were taken at 0, 0.5, 1, 2, 4, and 6 h.

For data set [4], the system named is Pseudomonas aeruginosa PAO1. Nature of the data set: Broth microdilution MIC, ESKAPE pathogens. To be noted: strain not given (PAO1 and PA14 tested), LB, 37 °C, 24 h. Format: cell-based. On the procedure: Peptides were tested in antimicrobial assays against Serratia marcescens ATCC 4112, Enterobacter cloacae β-12, Micrococcus luteus A270, Bacillus megaterium ATCC 10778, Bacillus subtilis ATCC 6633, Candida albicans MDM8, Candida tropicalis IOC 4560, Acinetobacter baumannii ATCC 19606, Escherichia coli ATCC 11775, Escherichia coli AIC221, Escherichia coli AIC222, Klebsiella pneumoniae ATCC 13883, Staphylococcus aureus ATCC 12600, Pseudomonas aeruginosa PAO1, and Pseudomonas aeruginosa PA14. All microorganisms were obtained from the American Type Culture Collection (ATCC), Instituto Butantan, São Paulo, Brazil, and the clinical isolate strains were donated from the Oswaldo Cruz Institute Collection (IOC), Rio de Janeiro, Brazil.
The minimal inhibitory concentration (MIC) against the ESKAPE pathogens was determined using the broth microdilution method[7] in Luria-Bertani (LB) medium. The MIC value was defined as the lowest concentration of peptide at which no microbial growth was observed. A. baumannii ATCC 19606, E. coli ATCC 11775, E. coli AIC221, E. coli AIC222, K. pneumoniae ATCC 13883, S. aureus ATCC 12600 P. aeruginosa PAO1, and P. aeruginosa PA14 were incubated on agar plates, and after 24 h, three isolated colonies were inoculated to 5 mL of Luria-Bertani (LB) broth and maintained at 37 °C overnight with shaking. Peptides were then added to 96-well polystyrene microtiter plates at concentrations ranging from 0 to 128 μmol L^−1, and 5 × 10^5 CFU mL^−1 of each bacterium was inoculated in each well. The plates were incubated at 37 °C for 24 h. Bacterial growth was measured using a microplate reader at 610 nm. Three independent replicates were performed.
(Broth dilution looks for growth in wells or tubes with falling amounts of substance.)

The test system of data set [5] is human erythrocytes. Nature of the data set: Hemolytic activity. It is filed as cell-based. The settings on record: 0.1–100 μmol L^−1 in PBS, room temperature, 1 h, absorbance 405 nm. On the procedure: Assays against freshly collected human erythrocytes were performed following protocols described by Pedron et al.[54]. Briefly, peptide aliquots at concentrations ranging from 0.1 to 100 μmol L^−1 were incubated with a suspension of erythrocytes at room temperature for 1 h. The samples were then centrifuged, and the absorbance of the supernatant was measured at 405 nm. […] The surfactant SDS and PBS buffer were used as positive[81],[82] and negative controls, respectively. Sodium heparin was used as an anticoagulant when collecting human blood. Three biological repeats were performed. All experiments were performed in accordance with the protocol CEUA/IB #I-1345/15 approved by the Instituto Butantan.

For data set [6], the system named is MCF-7 human breast cancer cells. Nature of the data set: MTT assay, anticancer activity. It is filed as cell-based. The settings on record: 37 °C. On the procedure:
The anticancer activity assays were performed using MCF-10A human breast epithelial cells and MCF-7 mammary cancer cells as previously described by Pedron et al.[78]. Briefly, the day before treatment, the cells were incubated at 37 °C and 5% CO2 for 24 h. The cells were treated with peptides ranging from 12.5 to 100 μmol L^−1 (MCF10-A cells) and 0.8 to 100 μmol L^−1 (MCF-7 cells) for 4 h and 24 h at 37 °C, and cell viability was measured using 3-(4,5-Dimethylthiazol-2-yl)-2,5-diphenyltetrazolium bromide (MTT) assays[79],[80]. Three independent replicates were performed in each case.
(In general: Tetrazolium assays rely on reduction of a dye to a coloured formazan, in cell work by metabolically active cells.)

The mark [7] stands for this setting: LC peak area, time 0 = 100, 0.5 h, replicate 1.
[8] abbreviates: LC peak area, time 0 = 100, 0.5 h, replicate 2.
[9] abbreviates: LC peak area, time 0 = 100, 0.5 h, replicate 3.
Where [10] appears, read: LC peak area, time 0 = 100, 1 h, replicate 1.
[11] abbreviates: LC peak area, time 0 = 100, 1 h, replicate 2.
[12] abbreviates: LC peak area, time 0 = 100, 1 h, replicate 3.
[13] abbreviates: LC peak area, time 0 = 100, 2 h, replicate 1.
The mark [14] stands for this setting: LC peak area, time 0 = 100, 2 h, replicate 2.
Setting [15] is: LC peak area, time 0 = 100, 2 h, replicate 3.
[16] abbreviates: LC peak area, time 0 = 100, 4 h, replicate 1.
The mark [17] stands for this setting: LC peak area, time 0 = 100, 4 h, replicate 2.
Where [18] appears, read: LC peak area, time 0 = 100, 4 h, replicate 3.
The mark [19] stands for this setting: LC peak area, time 0 = 100, 6 h, replicate 1.
[20] abbreviates: LC peak area, time 0 = 100, 6 h, replicate 2.
[21] abbreviates: LC peak area, time 0 = 100, 6 h, replicate 3.

No end group written: not given here.

As for “FLGALWNVAKSVF-NH2 [VmCT1, reference compound]”, the “Mouse body weight, normalized to the weight at the beginning of the experiment” value is on record as 90 in data set [1] (day 0 = 100, Day 1, replicate 1); 100 in data set [1] (day 0 = 100, Day 1, replicate 2); 105 in data set [1] (day 0 = 100, Day 1, replicate 3); 90 in data set [1] (day 0 = 100, Day 2, replicate 1); 95 in data set [1] (day 0 = 100, Day 2, replicate 2); 100 in data set [1] (day 0 = 100, Day 2, replicate 3). For the same substance, the “Mouse body weight, normalized to the weight at the beginning of the experiment” value in data set [1] (day 0 = 100, Day 3, replicate 1) was found to be 95; in data set [1] (day 0 = 100, Day 3, replicate 2), 100; in data set [1] (day 0 = 100, Day 3, replicate 3), 105; in data set [1] (day 0 = 100, Day 4, replicate 1) it was 90; in data set [1] (day 0 = 100, Day 4, replicate 2) it was 100; in data set [1] (day 0 = 100, Day 4, replicate 3), 100. Also, the “Histopathological effect on skin tissue (in words)” value in data set [2] is reported as “Neither TV nor VmCT1 changed the tissue’s morphology”. For the same substance, the Peptide remaining was determined as 28.5 in data set [3] (setting [7]); 24.4 in data set [3] (setting [8]); 26.5 in data set [3] (setting [9]); 6.3 in data set [3] (setting [10]); 8.5 in data set [3] (setting [11]); 7.4 in data set [3] (setting [12]). Also, the Peptide remaining in data set [3] (setting [13]) was found to be 10.5; in data set [3] (setting [14]) it was 13.9; in data set [3] (setting [15]), 11.9; in data set [3] (setting [16]) it was 0.0; in data set [3] (setting [17]), 0.0; in data set [3] (setting [18]), 0.0. For the same substance, the Peptide remaining in data set [3] (setting [19]), in data set [3] (setting [20]) and in data set [3] (setting [21]) was 0.0 in each case.

For the substance ILGAILNVLKSLG-NH2 [PV], in data set [4], the “MIC against P. aeruginosa” value was found to be 128 µM. The “Hemolytic activity (concentration of peptide needed to kill 10% of red blood cells)” value in data set [5] is 25 µmol/L. The “Peptide remaining after 1 h” value in data set [3] (LC peak area vs time 0, 1 h, three replicates) is on record as “totally degraded”. The Peptide remaining was 98 in data set [3] (setting [7]); 85 in data set [3] (setting [8]); 88 in data set [3] (setting [9]); 0 in data set [3] (setting [10]); 0 in data set [3] (setting [11]); 0 in data set [3] (setting [12]). The Peptide remaining in data set [3] (setting [13]), in data set [3] (setting [14]), in data set [3] (setting [15]), in data set [3] (setting [16]), in data set [3] (setting [17]) and in data set [3] (setting [18]) was 0 in each case. Besides, the Peptide remaining in data set [3] (setting [19]), in data set [3] (setting [20]) and in data set [3] (setting [21]) was 0 in each case.

A word on the fraction remaining: it is the share of the starting amount still present when the sample was taken. Regarding “ILGTILGLLKGL-NH2 [Protonectin, reference compound]”, the “MIC against P. aeruginosa” value in data set [4] turned out to be 128 µM. In addition, the “MCF-7 4 h LD50” value in data set [6] (4 h of incubation) was found to be 25 µmol/L. Further, the “MCF-7 24 h LD50” value in data set [6] (24 h of incubation) turned out to be 25 µmol/L. The “Hemolytic activity (concentration of peptide needed to kill 10% of red blood cells)” value in data set [5] stood at 12.5 µmol/L. The Peptide remaining in data set [3] (setting [7]), in data set [3] (setting [8]), in data set [3] (setting [9]), in data set [3] (setting [11]), in data set [3] (setting [12]) and in data set [3] (setting [13]) was 0.0 each time. For the same substance, the Peptide remaining in data set [3] (setting [14]), in data set [3] (setting [15]), in data set [3] (setting [16]), in data set [3] (setting [17]), in data set [3] (setting [18]) and in data set [3] (setting [19]) was 0.0 throughout. Moreover, the Peptide remaining in data set [3] (setting [20]) and in data set [3] (setting [21]) was 0.0 in each case. In addition, in data set [3] (exposure for 6 h, LC), the “Degradation in fetal bovine serum (in words)” value is recorded as “quickly degraded”. Also, the fraction remaining at 1 h in data set [3] (fetal bovine serum, 25% in water, LC peak area, time 0 = 100, 1 h, replicate 1, read-out: Peptide remaining) worked out at 0%.
